Common to all, as to assay type: cell-based
For assay [1], the system named is SNU-16 (FGFR2-amplification) cells. Description: cell proliferation assay (CellTiterGlo), SNU-16 cells. The conditions noted are these: Homo sapiens, 72 hours. The source says:
(§1) In some embodiments, the biological assay assess the ability of the compounds to inhibit cell proliferation.
(§2) In some embodiments, cells (e.g., SNU-16 (FGFR2-amplification) cells) may be suspended and dispensed in plates. In some embodiments, cells (e.g., UM-UC-14 (FGFR3-S249C) cells) may be suspended and dispensed in plates. In some embodiments, cells (e.g., DMS-114 (FGFR1 overexpression) cells) may by suspended and dispensed in plates. In some embodiments, cells (e.g., RT-112 (FGFR3-Tacc3 fusion) cells) may be suspended and dispensed in plates. In some embodiments, to determine the effect of the compounds of the present disclosure on cell proliferation, cells (e.g., SNU-16, UM-UC-14, DMS-114 and […] cells) may be incubated in the presence of vehicle control (e.g., DMSO) or a compound of the present disclosure at varying concentrations and the inhibition of cell growth may be determined by luminescent quantification (e.g., of intracellular ATP content using CellTiterGlo), according to the manufacturers protocol. In some embodiments, to determine the IC50 values, the vehicle-treated cells were normalized as viable cells and the growth was analyzed using a software (e.g., the CDD Vault software (Collaborative Drug Discovery, Burlingame, CA)).
(ATP-based viability assays read luminescence as a measure of living cells.)

Assay [2] has as its system DMS-114 (FGFR1 overexpression) cells. Description: cell proliferation assay (CellTiterGlo), DMS-114 cells. The conditions noted are these: Homo sapiens, DMS-114, 72 h.
From the text: as §1, §2

Assay [3] has as its system RT-112 (FGFR3-Tacc3 fusion) cells. Description: cell proliferation assay (CellTiterGlo), RT-112 cells. To be noted: Homo sapiens, RT-112, RT112 cells, 72 hours.
From the text: as §1, §2

Assay [4] deals with UM-UC-14 (FGFR3-S249C) cells. Description: cell proliferation assay (CellTiterGlo), UM-UC-14 cells. To be noted: UMUC14, 72 h.
From the text: as §1, §2

SMILES strings stand for the structures.

The text below walks through data of patent US20240368181A1, “QUINOXALINE DERIVATIVES AND USES THEREOF” (Black Diamond Therapeutics, Inc., priority 2021, published 2024).

Consider `Cc1nc2ccc(Oc3ccc4ncc(-c5cnn(CC6CC(F)(F)C6)c5)nc4c3C3=CC(C)(C)OC3(C)C)c(F)c2[nH]1` [Compound 88], for which the IC50 (in general, the concentration that gives 50% inhibition) in assay [1] lay within 20 to 100 nM; in assay [2] it was 100 to 400 nM; in assay [3], 20 to 100 nM; in assay [4], 20 to 100 nM.

In the case of `Cc1nc2c(F)c(Oc3ccc4ncc(-c5cnn(CC6CC(F)(F)C6)c5)nc4c3Cl)ccc2[nH]1` [Compound 229], the IC50 in assay [1] is 20 to 100 nM; in assay [2], at least 400 nM; in assay [3], 20 to 100 nM; in assay [4], 20 to 100 nM.

On to `Cc1nc2ccc(Oc3ccc4ncc(-c5cnn(CC(=O)N6CCOC(C)(C)C6)c5)nc4c3Cl)cc2[nH]1` [Compound 188], for which the IC50 was 20 to 100 nM in assay [1], at least 400 nM in assay [2], 20 to 100 nM in assay [3] and 20 to 100 nM in assay [4].

As to `Cc1nc2ccc(Oc3ccc4ncc(-c5cnn(CC6CCNCC6F)c5)nc4c3Cl)cc2[nH]1` (stereo not drawn) [Compound 375], the IC50 in assay [1] was 20 to 100 nM; in assay [2], 100 to 400 nM; in assay [3], below 20 nM; in assay [4], 20 to 100 nM.

As to `Cc1nc2ccc(Oc3ccc4ncc(-c5cnn(CCN6CCCC6)c5)nc4c3Cl)cc2[nH]1` [Compound 381], the IC50 in assay [1] is 20 to 100 nM; in assay [2] it was at least 400 nM; in assay [3] it was 20 to 100 nM; in assay [4], 20 to 100 nM.

For `Cc1nc2ccc(Oc3ccc4ncc(-c5cnn([C@H]6C[C@](C)(O)C6)c5)nc4c3Cl)c(F)c2[nH]1` [Compound 149], the concentration for half-maximal inhibition (IC50) is below 20 nM in assay [1], 100 to 400 nM in assay [2], below 20 nM in assay [3] and below 20 nM in assay [4].

As to `CC(=O)/C=C/N1CC[C@H](n2cc(-c3cnc4ccc(Oc5ccc6nc(C)[nH]c6c5)c(Cl)c4n3)cn2)[C@@H](F)C1` [Compound 233], the IC50 was 20 to 100 nM in assay [1], at least 400 nM in assay [2], 20 to 100 nM in assay [3] and 20 to 100 nM in assay [4].

As to `Cc1nc2ccc(Oc3ccc4ncc(-c5cnn([C@H]6C[C@H](N7CC(O)C7)C6)c5)nc4c3Cl)cc2[nH]1` [Compound 214], the IC50 lay within 20 to 100 nM in assay [1], 100 to 400 nM in assay [2], 20 to 100 nM in assay [3] and 20 to 100 nM in assay [4].

For the compound `Cc1nc2cc(Oc3ccc4ncc(-c5cnn(CC(=O)N6CCC(F)(F)CC6)c5)nc4c3Cl)ccc2[nH]1` [Compound 332], the IC50 was 20 to 100 nM in assay [1], at least 400 nM in assay [2], 20 to 100 nM in assay [3] and 20 to 100 nM in assay [4].

`Cc1nc2ccc(Oc3ccc4ncc(-c5cnn(CC(C)(C)O)c5)nc4c3Cl)c(F)c2[nH]1` [Compound 131]: the half-inhibitory concentration (IC50) was below 20 nM in assay [1], 100 to 400 nM in assay [2], below 20 nM in assay [3] and below 20 nM in assay [4].

For `Cc1cc2cc(Oc3ccc4ncc(-c5cnn(CC6CCN(C)CC6)c5)nc4c3Cl)ccn2n1` [Compound 345], the IC50 in assay [1], in assay [2], in assay [3] and in assay [4] was at least 400 nM throughout.

On to `Cc1nc2ccc(Oc3ccc4ncc(-c5cnn(CC6(O)CC6)c5)nc4c3C3=CC(C)(C)OC3)c(F)c2[nH]1` [Compound 73], for which the IC50 in assay [1] was below 20 nM; in assay [2] it was 20 to 100 nM; in assay [3], below 20 nM; in assay [4], below 20 nM.

On to `Cc1nc2ccc(Oc3ccc4ncc(-c5cnn(CC6OCC7(COC7)CO6)c5)nc4c3Cl)cc2[nH]1` [Compound 299], for which the IC50 is 20 to 100 nM in assay [1], at least 400 nM in assay [2], 20 to 100 nM in assay [3] and 20 to 100 nM in assay [4].

For `Cc1nc2ccc(Oc3ccc4ncc(-c5cnn(C6CC7CC6CN7C6COC6)c5)nc4c3Cl)cc2[nH]1` (stereo not drawn) [Compound 331], the IC50 in assay [1] is below 20 nM; in assay [2] it was at least 400 nM; in assay [3], below 20 nM; in assay [4], 20 to 100 nM.

With `Cc1nc2ccc(Oc3ccc4ncc(-c5cnn(C6CCN(C7COC7)CC6)c5)nc4c3Cl)cc2[nH]1` [Compound 340], the IC50 in assay [1] was below 20 nM; in assay [2], 100 to 400 nM; in assay [3] it was below 20 nM; in assay [4], 20 to 100 nM.

As to `Cc1nc2ccc(Oc3ccc4ncc(-c5cnn(CC6CN(CC(=O)N7CCC7)C6)c5)nc4c3Cl)cc2[nH]1` [Compound 320], the IC50 in assay [1] is 20 to 100 nM; in assay [2], at least 400 nM; in assay [3], 20 to 100 nM; in assay [4], 100 to 400 nM.

As to `Cc1nc2ccc(Oc3ccc4ncc(-c5cnn(CCC6CCN(C)CC6)c5)nc4c3Cl)cc2[nH]1` [Compound 305], the concentration for half-maximal inhibition (IC50) is below 20 nM in assay [1], 100 to 400 nM in assay [2], below 20 nM in assay [3] and below 20 nM in assay [4].

As for `Cc1nc2ccc(Oc3ccc4ncc(-c5cnn(C6CN(CC(=O)N7CC(F)(F)C7)C6)c5)nc4c3Cl)cc2[nH]1` [Compound 226], the IC50 in assay [1] is 100 to 400 nM; in assay [2], at least 400 nM; in assay [3] it was 20 to 100 nM; in assay [4] it was 20 to 100 nM.

Consider `Cc1nc2ccc(Oc3ccc4ncc(-c5cnn(C6CCN(CC(N)=O)CC6)c5)nc4c3Cl)cc2[nH]1` [Compound 330], for which the IC50 in assay [1] was below 20 nM; in assay [2], at least 400 nM; in assay [3] it was below 20 nM; in assay [4], 20 to 100 nM.

Regarding `Cc1nc2ccc(Oc3ccc4ncc(-c5cnn(CC6CC(F)(F)C6)c5)nc4c3C3=CCOC3)c(F)c2[nH]1` [Compound 89], the IC50 in assay [1] is below 20 nM; in assay [2], 100 to 400 nM; in assay [3], 20 to 100 nM; in assay [4], 20 to 100 nM.

For `Cc1nc2ccc(Oc3ccc4ncc(-c5cnn(CC6(O)CC6)c5)nc4c3N3CCOCC3)cc2[nH]1` [Compound 75], the IC50 is 20 to 100 nM in assay [1], at least 400 nM in assay [2], 100 to 400 nM in assay [3] and 100 to 400 nM in assay [4].

`COC1(Cn2cc(-c3cnc4ccc(Oc5ccc6nc(C)[nH]c6c5)c(Cl)c4n3)cn2)CC1` [Compound 110]: the IC50 in assay [1] is 20 to 100 nM; in assay [2], at least 400 nM; in assay [3], 20 to 100 nM; in assay [4] it was 20 to 100 nM.

Regarding `Cc1nc2ccc(Oc3ccc4ncc(-c5cnn(C6CCN(c7cncc(F)c7)CC6)c5)nc4c3Cl)cc2[nH]1` [Compound 197], the half-inhibitory concentration (IC50) is 100 to 400 nM in assay [1], at least 400 nM in assay [2], 20 to 100 nM in assay [3] and 100 to 400 nM in assay [4].

As to `CCC(=O)N1CCC(CCn2cc(-c3cnc4ccc(Oc5ccc6nc(C)[nH]c6c5)c(Cl)c4n3)cn2)CC1` [Compound 300], the IC50 in assay [1] is 20 to 100 nM; in assay [2], at least 400 nM; in assay [3], 20 to 100 nM; in assay [4] it was below 20 nM.

For `Cc1nc2ccc(Oc3ccc4ncc(-c5cnn([C@H](C)C6CC(F)(F)C6)c5)nc4c3Cl)c(F)c2[nH]1` [Compound 109], the half-inhibitory concentration (IC50) in assay [1] is below 20 nM; in assay [2], 100 to 400 nM; in assay [3], below 20 nM; in assay [4], below 20 nM.

Take `Cc1nc2ccc(Oc3ccc4ncc(-c5cnn(CCNCCO)c5)nc4c3Cl)cc2[nH]1` [Compound 350]: the IC50 was 100 to 400 nM in assay [1], at least 400 nM in assay [2], 20 to 100 nM in assay [3] and 100 to 400 nM in assay [4].

Regarding `Cc1nc2ccc(Oc3ccc4ncc(-c5cnn(C6CN(c7cncc(F)c7)C6)c5)nc4c3Cl)cc2[nH]1` [Compound 196], the IC50 is 100 to 400 nM in assay [1], at least 400 nM in assay [2], 100 to 400 nM in assay [3] and 100 to 400 nM in assay [4].

`Cc1nc2ccc(Oc3ccc4ncc(-c5cnn(CC6CCS(=O)(=O)CC6)c5)nc4c3Br)cc2[nH]1` [Compound 279]: the IC50 is below 20 nM in assay [1], at least 400 nM in assay [2], below 20 nM in assay [3] and below 20 nM in assay [4].

`COCCN1CCC(n2cc(-c3cnc4ccc(Oc5ccc6nc(C)[nH]c6c5)c(Cl)c4n3)cn2)CC1` [Compound 316]: the IC50 in assay [1] is 20 to 100 nM; in assay [2] it was at least 400 nM; in assay [3], 20 to 100 nM; in assay [4] it was 20 to 100 nM.

Consider `CC(=O)N1CCCC(n2cc(-c3cnc4ccc(Oc5ccc6nc(C)[nH]c6c5)c(Cl)c4n3)cn2)C1` (stereo not drawn) [Compound 373], for which the IC50 in assay [1] was 20 to 100 nM; in assay [2], at least 400 nM; in assay [3], 20 to 100 nM; in assay [4] it was 20 to 100 nM.

Turning to `Cc1nc2ccc(Oc3ccc4ncc(-c5cnn(Cc6ncc7n6CCOC7)c5)nc4c3Cl)c(F)c2[nH]1` [Compound 145], the IC50 in assay [1] was 20 to 100 nM; in assay [2], at least 400 nM; in assay [3], 100 to 400 nM; in assay [4], at least 400 nM.

Consider `Cc1nc2ccc(Oc3ccc4ncc(-c5cnn(C6CCN(c7ccccn7)CC6)c5)nc4c3Cl)cc2[nH]1` [Compound 194], for which the IC50 in assay [1] was 100 to 400 nM; in assay [2] it was at least 400 nM; in assay [3], 100 to 400 nM; in assay [4], 100 to 400 nM.

As for `COC1CN([C@H]2C[C@@H](n3cc(-c4cnc5ccc(Oc6ccc7nc(C)[nH]c7c6)c(Cl)c5n4)cn3)C2)C1` [Compound 201], the IC50 was 20 to 100 nM in assay [1], at least 400 nM in assay [2], 20 to 100 nM in assay [3] and 20 to 100 nM in assay [4].
